Patent publication US11780893B2, “Kv1.3 blockers” (Zealand Pharma A/S, priority 2019, dated 2023)
Where two headings read alike, the source gives them in different places. Bridge positions count the residues as written; N and C are the ends. Square brackets hold non-standard residues; d marks the D form. Peptide text beside a SMILES is read from it. Nle = CCCC[C@H](N)C(=O)O

Columns and labels:
[1] = molecular target: T1, human Kv1.3 voltage-gated K+ channel (Homo sapiens, UniProt P22001); assay: cell-based; settings: inhibition of thallium flux, CHO-DUKX cells with human Kv1.3; read-out: IC50
T1 construct: host or cells: CHO-DUKX
T1 sequence (P22001 whole entry): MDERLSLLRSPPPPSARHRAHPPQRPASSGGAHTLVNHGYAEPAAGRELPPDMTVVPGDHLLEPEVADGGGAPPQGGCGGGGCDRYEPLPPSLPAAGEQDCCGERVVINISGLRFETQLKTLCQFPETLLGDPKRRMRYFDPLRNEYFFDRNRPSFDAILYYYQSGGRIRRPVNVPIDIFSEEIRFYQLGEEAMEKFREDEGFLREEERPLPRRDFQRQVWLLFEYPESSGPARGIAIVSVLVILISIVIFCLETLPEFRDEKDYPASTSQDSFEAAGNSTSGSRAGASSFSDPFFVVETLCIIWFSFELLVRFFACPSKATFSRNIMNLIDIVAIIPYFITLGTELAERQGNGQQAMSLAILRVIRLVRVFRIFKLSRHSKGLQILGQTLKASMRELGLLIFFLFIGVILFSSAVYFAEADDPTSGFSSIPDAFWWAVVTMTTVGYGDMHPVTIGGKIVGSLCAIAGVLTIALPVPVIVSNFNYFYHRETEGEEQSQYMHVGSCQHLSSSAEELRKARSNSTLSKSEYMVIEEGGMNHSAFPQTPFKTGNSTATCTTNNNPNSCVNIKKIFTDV

Rat whole blood = Rat whole blood (Rattus norvegicus, UniProt P15384)
Sequence of Rat whole blood (P15384 whole entry): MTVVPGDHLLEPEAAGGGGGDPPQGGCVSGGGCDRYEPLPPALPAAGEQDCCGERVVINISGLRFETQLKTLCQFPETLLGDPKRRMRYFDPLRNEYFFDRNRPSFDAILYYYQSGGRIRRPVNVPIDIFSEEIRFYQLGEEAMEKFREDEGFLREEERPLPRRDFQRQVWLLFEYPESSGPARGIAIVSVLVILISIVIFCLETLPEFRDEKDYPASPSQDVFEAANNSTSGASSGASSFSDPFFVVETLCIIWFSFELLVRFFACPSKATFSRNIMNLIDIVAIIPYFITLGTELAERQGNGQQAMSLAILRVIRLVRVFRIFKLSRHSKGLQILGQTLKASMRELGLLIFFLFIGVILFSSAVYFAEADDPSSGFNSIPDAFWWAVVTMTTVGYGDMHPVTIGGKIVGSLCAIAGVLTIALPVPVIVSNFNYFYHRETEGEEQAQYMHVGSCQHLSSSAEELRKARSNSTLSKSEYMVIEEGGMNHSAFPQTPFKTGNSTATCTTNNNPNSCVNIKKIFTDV

Kv1.2 = molecular target: T2, Kv1.2 (Homo sapiens, UniProt P16389); assay: cell-based; settings: CHO cells, whole-cell patch clamp; read-out: Potency IC50 (nM) Kv1.2
T2 construct: expressed in transfected cells; host or cells: Chinese Hamster Ovary (CHO)
T2 sequence (P16389 whole entry): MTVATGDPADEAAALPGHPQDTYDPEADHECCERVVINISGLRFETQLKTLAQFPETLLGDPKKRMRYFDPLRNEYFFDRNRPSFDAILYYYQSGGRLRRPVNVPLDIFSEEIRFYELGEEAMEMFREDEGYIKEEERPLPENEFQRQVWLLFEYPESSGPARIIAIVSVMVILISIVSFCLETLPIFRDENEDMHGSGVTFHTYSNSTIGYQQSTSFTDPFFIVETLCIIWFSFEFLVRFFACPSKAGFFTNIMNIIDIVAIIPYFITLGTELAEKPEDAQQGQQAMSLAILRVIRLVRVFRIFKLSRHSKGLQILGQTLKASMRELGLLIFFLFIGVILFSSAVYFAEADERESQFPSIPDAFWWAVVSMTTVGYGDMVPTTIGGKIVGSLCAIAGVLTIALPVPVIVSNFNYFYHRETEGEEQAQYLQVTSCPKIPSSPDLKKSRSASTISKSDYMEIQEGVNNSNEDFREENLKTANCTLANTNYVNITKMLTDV

Kv1.3 = molecular target: T3, Kv1.3 (Homo sapiens, UniProt P22001); assay: cell-based; settings: CHO cells, whole-cell patch clamp; read-out: Potency IC50 (nM) Kv1.3
T3 construct: expressed in transfected cells; host or cells: Chinese Hamster Ovary (CHO)
T3 sequence (P22001 whole entry): as the sequence (P22001 whole entry) above

Kv1.1 = molecular target: T4, Kv1.1 (Homo sapiens, UniProt Q09470); assay: cell-based; settings: for IC50: CHO cells, whole-cell patch clamp, read-out: Potency IC50 (nM) Kv1.1; for Selectivity Kv1.1/Kv1.3: ratio IC50[Kv1.1]/IC50[Kv1.3]
T4 construct: expressed in transfected cells; host or cells: Chinese Hamster Ovary (CHO)
T4 sequence (Q09470 whole entry): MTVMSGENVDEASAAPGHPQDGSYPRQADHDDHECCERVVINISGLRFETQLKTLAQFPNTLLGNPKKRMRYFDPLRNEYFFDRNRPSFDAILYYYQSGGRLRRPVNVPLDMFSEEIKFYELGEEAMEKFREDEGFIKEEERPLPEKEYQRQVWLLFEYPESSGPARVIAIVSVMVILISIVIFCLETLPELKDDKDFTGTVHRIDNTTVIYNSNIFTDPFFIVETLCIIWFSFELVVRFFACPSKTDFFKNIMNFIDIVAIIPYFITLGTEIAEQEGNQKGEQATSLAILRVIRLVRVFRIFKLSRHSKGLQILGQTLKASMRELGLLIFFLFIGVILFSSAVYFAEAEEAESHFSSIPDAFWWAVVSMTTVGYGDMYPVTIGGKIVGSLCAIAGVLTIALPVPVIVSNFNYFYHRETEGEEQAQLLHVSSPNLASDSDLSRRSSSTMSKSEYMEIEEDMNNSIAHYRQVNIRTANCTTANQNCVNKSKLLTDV

Kv1.6 = molecular target: T5, Kv1.6 (Homo sapiens, UniProt P17658); assay: cell-based; settings: for IC50: CHO cells, whole-cell patch clamp, read-out: Potency IC50 (nM) Kv1.6; for Selectivity Kv1.6/Kv1.3: ratio IC50[Kv1.6]/IC50[Kv1.3]
T5 construct: expressed in transfected cells; host or cells: Chinese Hamster Ovary (CHO)
T5 sequence (P17658 whole entry): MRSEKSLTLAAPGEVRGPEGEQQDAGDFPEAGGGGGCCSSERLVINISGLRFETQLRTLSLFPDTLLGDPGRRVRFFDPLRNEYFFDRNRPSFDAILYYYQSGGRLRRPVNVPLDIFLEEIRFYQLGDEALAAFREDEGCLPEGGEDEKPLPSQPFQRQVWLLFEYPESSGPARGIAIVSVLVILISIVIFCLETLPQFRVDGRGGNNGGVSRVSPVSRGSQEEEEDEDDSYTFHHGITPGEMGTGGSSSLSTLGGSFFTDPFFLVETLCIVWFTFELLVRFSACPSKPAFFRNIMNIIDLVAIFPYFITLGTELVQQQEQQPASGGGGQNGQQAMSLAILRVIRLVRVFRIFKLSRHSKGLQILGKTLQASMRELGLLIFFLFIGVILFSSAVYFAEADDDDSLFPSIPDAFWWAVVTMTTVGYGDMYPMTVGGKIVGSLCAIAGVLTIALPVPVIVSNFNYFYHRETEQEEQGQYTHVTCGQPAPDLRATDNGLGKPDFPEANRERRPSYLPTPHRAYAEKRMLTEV

in vivo = settings: male, rat, sc, 70 nmol/kg
[2] = system: delayed-type hypersensitivity (DTH) ear swelling response; format: in vivo, rat; settings: Kv1.3 blocker 100 nmol/kg SC 24 hrs prior to KLH challenge, CsA 10 mg/kg per os

Structure (SMILES)	IC50 [1] [nM]	IC50 (Rat whole blood) [nM]	IC50 (Kv1.2) [nM]	IC50 (Kv1.3) [nM]	IC50 (Kv1.1) [nM]	Selectivity Kv1.1/Kv1.3 (Kv1.1)	IC50 (Kv1.6) [nM]	Selectivity Kv1.6/Kv1.3 (Kv1.6)	AUC(0-inf) (in vivo) [µM·h]	Cmax (in vivo) [nM]	half-life (in vivo) [min]	% inhibition of ear thickness (AUC of Δ ear thickness 0-48 hours) ([2]; Exp #4, +/- SD) [%]	% inhibition of ear thickness (AUC of Δ ear thickness 0-48 hours) ([2]; Exp #5) [%]	% inhibition of ear thickness (AUC of Δ ear thickness 0-48 hours) ([2]; Exp #7) [%]
CC[C@H](C)[C@@H]1NC(=O)[C@H](C)NC(=O)[C@H](CCCCN)NC(=O)[C@H](CC(C)C)NC(=O)[C@@H]2CSSC[C@@H](C(=O)N[C@@H](Cc3ccc(O)cc3)C(=O)N3CCC[C@H]3C(=O)N[C@@H](CCCNC(=N)N)C(N)=O)NC(=O)[C@H](CCCCN)NC(=O)[C@@H]3CSSC[C@H](NC(=O)[C@H](CCC(=O)O)NC(=O)[C@H](C(C)C)NC(=O)[C@H](CO)NC(=O)[C@H](C)NC(=O)[C@H](CO)NC(=O)[C@@H](NC(=O)[C@H](CCCNC(=N)N)NC(=O)[C@H](CCSC)NC(=O)[C@H](CC(=O)O)NC(=O)[C@H](CCSC)NC(=O)[C@@H](N)CC(N)=O)CSSC[C@H](NC(=O)[C@H](CCCCN)NC(=O)CNC(=O)[C@H](Cc4ccccc4)NC(=O)[C@H]([C@@H](C)CC)NC(=O)[C@H](CO)NC(=O)CNC1=O)C(=O)N[C@@H](CCSC)C(=O)N[C@@H](CC(N)=O)C(=O)N[C@@H](CCCCN)C(=O)N[C@@H](CCCCN)C(=O)N3)C(=O)N[C@@H](C)C(=O)N[C@@H](CCC(N)=O)C(=O)N[C@@H](CCCCN)C(=O)N2 [Compound 30] (H-NMDMRCSASVECAQKCLKAIGSIFGKCMNKKCKCYPR-NH2; disulfide 6-27, 12-32, 16-34)	0.09	≤ 1	666	0.14	> 3000	>22000	> 3000	>22000	0.0467	33.3	44.4	–	–	–
CC[C@H](C)[C@@H]1NC(=O)[C@H](C)NC(=O)[C@H](C)NC(=O)[C@H](CC(C)C)NC(=O)[C@@H]2CSSC[C@@H](C(=O)N[C@@H](Cc3ccc(O)cc3)C(=O)N3CCC[C@H]3C(=O)N[C@@H](CCCNC(=N)N)C(N)=O)NC(=O)[C@H](CCCCN)NC(=O)[C@@H]3CSSC[C@H](NC(=O)[C@H](CCC(=O)O)NC(=O)[C@H](C(C)C)NC(=O)[C@H](CO)NC(=O)[C@H](C)NC(=O)[C@H](CO)NC(=O)[C@@H](NC(=O)[C@H](CCCNC(=N)N)NC(=O)[C@H](CCSC)NC(=O)[C@H](CC(=O)O)NC(=O)[C@H](CCSC)NC(=O)[C@@H](N)CC(N)=O)CSSC[C@H](NC(=O)[C@H](CCCCN)NC(=O)CNC(=O)[C@H](Cc4ccccc4)NC(=O)[C@H]([C@@H](C)CC)NC(=O)[C@H](CO)NC(=O)CNC1=O)C(=O)N[C@@H](CCSC)C(=O)N[C@@H](CC(N)=O)C(=O)N[C@@H](CCCCN)C(=O)N[C@@H](CCCCN)C(=O)N3)C(=O)N[C@@H](CCCCN)C(=O)N[C@@H](CCC(N)=O)C(=O)N[C@@H](CCCCN)C(=O)N2 [Compound 52] (H-NMDMRCSASVECKQKCLAAIGSIFGKCMNKKCKCYPR-NH2; disulfide 6-27, 12-32, 16-34)	0.11	≤ 1	88	0.11	> 3000	>27500	> 3000	>27500	0.0485	31.2	53.4	25.1	–	–
CC[C@H](C)[C@@H]1NC(=O)[C@H](C)NC(=O)[C@H](Cc2ccc(O)cc2)NC(=O)[C@H](CC(C)C)NC(=O)[C@@H]2CSSC[C@@H](C(=O)N[C@@H](Cc3ccc(O)cc3)C(=O)N3CCC[C@H]3C(=O)N[C@@H](CCCNC(=N)N)C(N)=O)NC(=O)[C@H](CCCCN)NC(=O)[C@@H]3CSSC[C@H](NC(=O)[C@H](CCC(=O)O)NC(=O)[C@H](C(C)C)NC(=O)[C@H](CO)NC(=O)[C@H](C)NC(=O)[C@H](CO)NC(=O)[C@@H](NC(=O)[C@H](CCCNC(=N)N)NC(=O)[C@H](CCSC)NC(=O)[C@H](CC(=O)O)NC(=O)[C@H](CCSC)NC(=O)[C@@H](N)CC(N)=O)CSSC[C@H](NC(=O)[C@H](CCCCN)NC(=O)CNC(=O)[C@H](Cc4ccccc4)NC(=O)[C@H]([C@@H](C)CC)NC(=O)[C@H](CO)NC(=O)CNC1=O)C(=O)N[C@@H](CCSC)C(=O)N[C@@H](CC(N)=O)C(=O)N[C@@H](CCCCN)C(=O)N[C@@H](CCCCN)C(=O)N3)C(=O)N[C@@H](CCCCN)C(=O)N[C@@H](CCC(N)=O)C(=O)N[C@@H](CCCCN)C(=O)N2 [Compound 53] (H-NMDMRCSASVECKQKCLYAIGSIFGKCMNKKCKCYPR-NH2; disulfide 6-27, 12-32, 16-34)	0.12	–	149	0.29	> 3000	>10300	> 3000	>10300	0.0311	50	52.2	–	–	–
CCCC[C@@H]1NC(=O)[C@@H]2CSSC[C@H](NC(=O)[C@H](CCCNC(=N)N)NC(=O)[C@H](CCCC)NC(=O)[C@H](CC(=O)O)NC(=O)[C@@H](NC(=O)[C@@H](N)CC(N)=O)[C@@H](C)CC)C(=O)N[C@@H](CO)C(=O)N[C@@H](C)C(=O)N[C@@H](CO)C(=O)N[C@@H](C(C)C)C(=O)N[C@@H](CCC(=O)O)C(=O)N[C@H]3CSSC[C@H](NC(=O)[C@H](CCCCN)NC(=O)[C@H](CCCCN)NC(=O)[C@H](CC(N)=O)NC1=O)C(=O)N[C@@H](CCCCN)C(=O)N[C@H](C(=O)N[C@@H](Cc1ccc(O)cc1)C(=O)N1CCC[C@H]1C(=O)N[C@@H](CCCNC(=N)N)C(=O)O)CSSC[C@H](NC(=O)[C@H](CCCCN)NC(=O)[C@H](CCC(N)=O)NC(=O)[C@H](CCCCN)NC3=O)C(=O)N[C@@H](CC(C)C)C(=O)N[C@@H](CCCCN)C(=O)N[C@@H](C)C(=O)N[C@@H]([C@@H](C)CC)C(=O)NCC(=O)N[C@@H](CO)C(=O)N[C@@H]([C@@H](C)CC)C(=O)N[C@@H](Cc1ccccc1)C(=O)NCC(=O)N[C@@H](CCCCN)C(=O)N2 [Compound 95] (H-NID[Nle]RCSASVECKQKCLKAIGSIFGKC[Nle]NKKCKCYPR-OH; disulfide 6-27, 12-32, 16-34)	0.16	–	2060	0.27	> 3000	>11300	> 3000	>11300	0.085	46.5	65.4	–	39.6	–
CCCC[C@H](NC(=O)[C@@H]1CCCN1)C(=O)N[C@@H](CCC(=O)O)C(=O)N[C@@H](CCCC)C(=O)N[C@@H](CCCNC(=N)N)C(=O)N[C@H]1CSSC[C@@H]2NC(=O)[C@H](CCCCN)NC(=O)CNC(=O)[C@H](Cc3ccccc3)NC(=O)[C@H]([C@@H](C)CC)NC(=O)[C@H](CO)NC(=O)CNC(=O)[C@H]([C@@H](C)CC)NC(=O)[C@H](C)NC(=O)[C@H](C)NC(=O)[C@H](CC(C)C)NC(=O)[C@@H]3CSSC[C@@H](C(=O)N[C@@H](Cc4ccc(O)cc4)C(=O)N4CCC[C@H]4C(=O)N[C@@H](CCCNC(=N)N)C(=O)O)NC(=O)[C@H](CCCCN)NC(=O)[C@H](CSSC[C@H](NC(=O)[C@H](CCC(=O)O)NC(=O)[C@H](C(C)C)NC(=O)[C@H](CO)NC(=O)[C@H](C)NC(=O)[C@H](CO)NC1=O)C(=O)N[C@@H](C)C(=O)N[C@@H](CCC(N)=O)C(=O)N[C@@H](CCCCN)C(=O)N3)NC(=O)[C@H](CCCCN)NC(=O)[C@H](CCCCN)NC(=O)[C@H](CC(N)=O)NC(=O)[C@H](CCCC)NC2=O [Compound 103] (H-P[Nle]E[Nle]RCSASVECAQKCLAAIGSIFGKC[Nle]NKKCKCYPR-OH; disulfide 6-27, 12-32, 16-34)	0.38	–	> 3000	0.55	> 3000	>5500	> 3000	>5500	0.177	68.4	81.6	–	–	48.9
